Reference: patent US11076595B2, “1-(n,n-disubstituted carbamoyl) 4-(substituted sulfonyl)triazolin-5-one derivative, 4-(n,n-disubstituted carbamoyl) 1-(substituted sulfonyl)triazolin-5-one derivative, and herbicide containing said derivative as active ingredient” (HOKKO CHEMICAL INDUSTRY CO., LTD., priority 2017, dated 2021)

Assays:
Format in all cases: in vivo
Echinochloa crus-galli [1] = experiment: Test Example 13: herbicidal effect test by soil treatment in upland field; conditions: 120 g/10a, 14 days after treatment
Procedure, shortened: (§1)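 Soil-applied emulsifiable concentrate at 120 g active ingredient per 10 are, sprayed one day after seeding into alluvial soil pots. Dry-weight-based suppression scored at 14 days; two replications.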

Amaranthus viridis [2] = experiment: as above; conditions: 120 g/10a, 14 days after treatment
Procedure, shortened: as §1

crabgrass [3] = experiment: as above; conditions: 120 g/10a, 14 days after treatment
Procedure, shortened: as §1

Chenopodium album [4] = experiment: as above; conditions: 120 g/10a, 14 days after treatment
Procedure, shortened: as §1

Echinochloa crus-galli [5] = experiment: Test Example 11: herbicidal effect test by soil treatment in paddy field; conditions: 120 g/10a active ingredient, 14 days after treatment
Procedure, shortened: (§2)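 Dry weight at day 14 relative to untreated controls gives the suppression rate; duplicate pots. Treatment: 120 g a.i./10 are into paddy water at sowing.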

Scirpus juncoides [6] = experiment: as above; conditions: 120 g/10a active ingredient, 14 days after treatment
Procedure, shortened: as §2

Monochoria vaginalis [7] = experiment: as above; conditions: 120 g/10a active ingredient, 14 days after treatment
Procedure, shortened: as §2

Lindernia pyxidaria [8] = experiment: as above; conditions: 120 g/10a active ingredient, 14 days after treatment
Procedure, shortened: as §2

Echinochloa crus-galli [9] = experiment: Test Example 14: herbicidal effect test by foliage treatment in upland field; conditions: 7 days after sowing, 120 g/10a, 14 days after treatment
Procedure, shortened: (§3)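 Post-sowing spray at day 7, 120 g a.i./10 are in 100 L water/10 are; alluvial soil pots, duplicate plots; endpoint day 14, % suppression from dry weight relative to untreated.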

Amaranthus viridis [10] = experiment: as above; conditions: 7 days after sowing, 120 g/10a, 14 days after treatment
Procedure, shortened: as §3

Echinochloa crus-galli [11] = experiment: Test Example 12: herbicidal effect test by treatment during growing period in paddy field; conditions: 120 g/10a; treatment seven days after sowing in flooded paddy pot; assessed 14 days after treatment
Procedure, shortened: (§4)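 Water-diluted emulsifiable concentrate added dropwise to flooded pots (~3 cm water) 7 d after sowing; rate 120 g active ingredient per 10 are. Weeds grown from 30 seeds each in puddled paddy soil under greenhouse conditions. Dry-weight suppression rate relative to untreated plots determined 14 d after treatment, duplicates.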

Scirpus juncoides [12] = experiment: as above; conditions: 120 g/10a; treatment seven days after sowing in flooded paddy pot; assessed 14 days after treatment
Procedure, shortened: as §4

Monochoria vaginalis [13] = experiment: as above; conditions: 120 g/10a; treatment seven days after sowing in flooded paddy pot; assessed 14 days after treatment
Procedure, shortened: as §4

Lindernia pyxidaria [14] = experiment: as above; conditions: 120 g/10a; treatment seven days after sowing in flooded paddy pot; assessed 14 days after treatment
Procedure, shortened: as §4

crabgrass [15] = experiment: Test Example 14: herbicidal effect test by foliage treatment in upland field; conditions: 7 days after sowing, 120 g/10a, 14 days after treatment
Procedure, shortened: as §3

Chenopodium album [16] = experiment: as above; conditions: 7 days after sowing, 120 g/10a, 14 days after treatment
Procedure, shortened: as §3

| SMILES | herbicidal effect, Echinochloa crus-galli (Echinochloa crus-galli [1]) [%] | herbicidal effect, Amaranthus viridis (Amaranthus viridis [2]) [%] | herbicidal effect, Crabgrass (crabgrass [3]) [%] | herbicidal effect, Chenopodium album (Chenopodium album [4]) [%] | Weed suppression rate (%) Echinochloa crus-galli (Echinochloa crus-galli [5]) [%] | Weed suppression rate (%) Scirpus juncoides (Scirpus juncoides [6]) [%] | Weed suppression rate (%) Monochoria vaginalis (Monochoria vaginalis [7]) [%] | Weed suppression rate (%) Lindemia pyxidaria (Lindernia pyxidaria [8]) [%] | herbicidal effect, Echinochloa crus-galli (Echinochloa crus-galli [9]) [%] | herbicidal effect, Amaranthus viridis (Amaranthus viridis [10]) [%] | Weed suppression rate (%) Echinochloa crus-galli (Echinochloa crus-galli [11]) [%] | Weed suppression rate (%) Scirpus juncoides (Scirpus juncoides [12]) [%] | Weed suppression rate (%) Monochoria vaginalis (Monochoria vaginalis [13]) [%] | Weed suppression rate (%) Lindemia pyxidaria (Lindernia pyxidaria [14]) [%] | herbicidal effect, Crabgrass (crabgrass [15]) [%] | herbicidal effect, Chenopodium album (Chenopodium album [16]) [%] |
| --- | --- | --- | --- | --- | --- | --- | --- | --- | --- | --- | --- | --- | --- | --- | --- | --- |
| CC(C)N(C(=O)n1cnn(S(=O)(=O)C2CCCCC2)c1=O)c1ccc(F)cc1F [Compound 11-294] | 80 | 90 | 90 | 80 | 100 | 100 | 100 | 100 | 80 | 90 | 100 | 90 | 90 | 80 | 90 | 80 |
| CC(C)N(C(=O)n1cnn(S(=O)(=O)c2c(F)c(F)c(F)c(F)c2F)c1=O)c1ccccc1 [Compound 11-800] | 60 | 70 | 90 | 70 | 90 | 90 | 80 | 90 | 90 | 100 | 90 | 90 | 90 | 60 | 90 | 100 |
| CC(C)N(C(=O)n1cnn(S(=O)(=O)c2ccc(C(C)(C)C)cc2)c1=O)c1ccc(Cl)cn1 [Compound 11-706] | 80 | 50 | 80 | 50 | 100 | 90 | 80 | 100 | 0 | 70 | 80 | 70 | 80 | 80 | 50 | 40 |
| CC(C)N(C(=O)n1cnn(S(=O)(=O)C(F)(F)F)c1=O)c1ccc(F)cc1F [Compound 11-95] | 70 | 0 | 70 | 0 | 100 | 100 | 50 | 100 |  |  | 90 | 70 | 90 | 60 |  |  |
| Cc1cc(F)ccc1N(C(=O)n1cnn(S(=O)(=O)c2ccc(F)cc2)c1=O)C(C)C [Compound 11-488] | 60 | 60 | 70 | 60 | 100 | 100 | 80 | 100 |  |  | 100 | 80 | 100 | 100 |  |  |
| CC(C)N(C(=O)n1cnn(S(=O)(=O)c2ccc(F)cc2)c1=O)c1c(F)cccc1F [Compound 11-477] | 100 | 70 | 100 | 70 | 100 | 100 | 70 | 90 |  |  | 100 | 70 | 70 | 60 |  |  |
| CC(C)N(C(=O)n1cnn(S(=O)(=O)c2cccc(Cl)c2)c1=O)c1ccc(F)cc1F [Compound 11-550] | 90 | 0 | 90 | 0 | 90 | 80 | 80 | 90 |  |  | 70 | 80 | 90 | 90 |  |  |
| CC(C)N(C(=O)n1cnn(S(=O)(=O)C2CC2)c1=O)c1ccc(C#N)cc1Cl [Compound 11-222] | 80 | 90 | 90 | 80 | 90 | 90 | 80 | 80 |  |  | 90 | 90 | 80 | 80 |  |  |
| CC(C)N(C(=O)n1cnn(S(=O)(=O)c2ccccc2F)c1=O)c1c(F)cc(F)cc1F [Compound 11-406] | 100 | 30 | 90 | 30 | 100 | 80 | 80 | 100 |  |  | 100 | 80 | 80 | 70 |  |  |
| CCN(CC)C(=O)n1cnn(S(=O)(=O)c2ccccc2C)c1=O [Compound 11-622] | 90 | 40 | 80 | 40 | 90 | 40 | 0 | 40 |  |  | 90 | 50 | 50 | 50 |  |  |
